In publication PMC8458285, “The Acinetobacter baumannii disinfectant resistance protein, AmvA, is a spermidine and spermine efflux pump” (Communications Biology, 2021):

Columns and labels:
AmvR [1] = molecular target: T1, AmvR (Acinetobacter baumannii, UniProt A0A0D5YGI2); experiment: nanoDSF isothermal analysis (Kd at […] °C); DSF shift +[…] °C; type: binding
T1 construct: gene ABUW_1678; AmvR (amvR amplified from A. baumannii ATCC17978 genomic DNA) carrying a C-terminal hexahistidine tag; dimer in solution

[2] = molecular target: AmvR (Acinetobacter baumannii ATCC17978); experiment: SEC; analytical SEC on Superdex 200 10/300 GL; elution volume compared with MW standards (HMW and LMW calibration sets)
AmvR [3] = molecular target: T1, AmvR; experiment: nanoDSF isothermal analysis (Kd at […] °C); weak, DSF shift only +[…] °C; type: binding

NCCCCNCCCN [spermidine]
Kd (AmvR [1]): 9.5 µM

NCCCNCCCCNCCCN [spermine]
Kd (AmvR [1]): 5.4 µM

AmvR (natural protein)
stoichiometry N [2]: 2

NCCCCN [putrescine]
Kd (AmvR [3]): 260 µM
